Experimental data: patent US10472395B2, “Cyclic peptide analogs and conjugates thereof” (Sirenas LLC, priority 2015, dated 2019)
pIC50: −log10 of the molar value. Like-named read-outs stand apart in the source and are kept apart here. Numbered stars: 1 amine (or outer) side, 2 acyl side, 3 side chain; on linkers, the order of the positions; unused ones are H or OH. Bridge positions count the residues as written; N and C are the ends. Square brackets hold non-standard residues; d marks the D form. Peptide text beside a SMILES is read from it. ξ: configuration not given here. X6 = C/C=C(\C)[C@@H](O[*:2])[C@@H](C)[C@H](C/C=C(\C)C(=O)[*:1])OCSC; X3 = C/C=C(\C)[C@@H](O[*:2])[C@@H](C)[C@@H](O)C/C=C(\C)C(=O)[*:1]; X10 = C/C(=C\CCCCO[*:2])C(=O)[*:1]; aIle = CC[C@@H](C)[C@H](N)C(=O)O; dNMeF = CN[C@H](Cc1ccccc1)C(=O)O; Ile(3ξ) = CCC(C)[C@H](N)C(=O)O; dHica = CC(C)C[C@@H](O)C(=O)O; dHiv = CC(C)[C@@H](O)C(=O)O; dAbu = CC[C@@H](N)C(=O)O; Abu = CC[C@H](N)C(=O)O; Aib = CC(C)(N)C(=O)O; Sar = CNCC(=O)O

Experiments:
[1] = tested on: BT-474 human mammary gland ductal carcinoma cells; assay: Inhibitory response of test compounds against BT-474 cells (Cell Titer-Glo, 72 h); type: cell-based
Protocol: (§1) BT-474 human mammary gland ductal carcinoma cells were seeded in a clear polystyrene 96-well microculture plate (Corning® Costar® 96-well flat bottom plate, Cat.#3997) in a total volume of 90 μL/well. After 24 hours of incubation in a humidified incubator at 37° C. with 5% CO2 and 95% air, 10 μL of 10×, serially diluted test agents in growth medium were added to each well (10 pt dose response curve, highest concentration 10 μM of test agent). After 72 hours of culture in a humidified incubator at 37° C., in an atmosphere of 5% CO2 and 95% air, the plated cells and Cell Titer-Glo® (Promega G7571) reagents were brought to room temperature to equilibrate for 30 minutes. 100 μL of Cell Titer-Glo® reagent was added to each well. The plate was shaken for two minutes and then left to equilibrate for ten minutes. The media/Cell Titer-Glo® reagent was transferred to a white polystyrene 96-well microculture plate (Corning® Costar® 96-well flat bottom plate, Cat.#3917) before reading luminescence on a Tecan GENios microplate reader.
(§2) Percent inhibition of cell growth was calculated relative to untreated control wells. The IC50 value for the test agents was determined using Prism 6.05 by curve-fitting of the data using the following four parameter-logistic equation:
(§3) [formula] where Top is the maximal % of control absorbance, Bottom is the minimal % of control absorbance at the highest agent concentration, Y is the % of control absorbance, X is the agent concentration, IC50 is the concentration of agent that inhibits cell growth by 50% compared to the control cells, and n is the slope of the curve.

HCC1954 cells = assay: Inhibitory response of test compounds against HCC1954 cells (method analogous to BT-474); type: cell-based; conditions: Homo sapiens
Protocol: as §1, §2, §3
Inhibitory response of test compounds against HCC1954 cells was determined using a method analogous to that used for BT-474 cells.

| Structure (SMILES) | pIC50 ([1]; Homo sapiens) | pIC50 (HCC1954 cells) | pIC50 [1] |
| --- | --- | --- | --- |
| C/C=C(\C)[C@H]1OC(=O)[C@@H](C)NC(=O)[C@H](C(C)CC)NC(=O)CN(C)C(=O)[C@@H](Cc2ccccc2)N(C)C(=O)[C@H](C)NC(=O)[C@@H](CC(C)C)NC(=O)/C(C)=C/C[C@H](O)[C@@H]1C (stereo partly drawn) [Compound 63] ([dL]A[dNMeF][Sar][Ile(3ξ)][dA]; linker N-C via X3) | > 7.70 | 6.70 to 7.70 |  |
| C/C=C(\C)[C@H]1OC(=O)[C@@H](C)NC(=O)[C@H](C(C)CC)NC(=O)CN(C)C(=O)[C@@H](Cc2ccccc2)N(C)C(=O)[C@H](C)NC(=O)[C@@H](Cc2ccccc2)NC(=O)/C(C)=C/C[C@H](O)[C@@H]1C (stereo partly drawn) [Compound 64] ([dF]A[dNMeF][Sar][Ile(3ξ)][dA]; linker N-C via X3) | > 7.70 | 6.70 to 7.70 |  |
| C/C=C(\C)[C@H]1OC(=O)[C@@H](C)NC(=O)[C@H](C(C)CC)NC(=O)CN(C)C(=O)[C@@H](Cc2ccccc2)N(C)C(=O)[C@H](C)NC(=O)[C@@H](CC(C)C)OC(=O)/C(C)=C/C=C/[C@@H]1C (stereo partly drawn) [Compound 69] | > 7.70 | > 7.70 |  |
| C/C=C(\C)[C@H]1OC(=O)[C@@H](C)NC(=O)[C@H]([C@H](C)CC)NC(=O)CN(C)C(=O)[C@@H](Cc2ccccc2)N(C)C(=O)[C@H](C)NC(=O)[C@@H](CC(C)C)OC(=O)/C(C)=C/C[C@H](OC(=O)N(C)CCNC)[C@@H]1C [Compound 75] | > 7.70 | > 7.70 |  |
| CCC(C)[C@@H]1NC(=O)CN(C)C(=O)[C@@H](Cc2ccccc2)N(C)C(=O)[C@H](C)NC(=O)[C@@H](CC(C)C)OC(=O)/C(C)=C/CCCCOC(=O)[C@@H](CC)NC1=O (stereo partly drawn) [Compound 77] ([dHica]A[dNMeF][Sar][Ile(3ξ)][dAbu]; linker N-C via X10) | < 5.00 |  |  |
| CCC(C)[C@@H]1NC(=O)CN(C)C(=O)[C@@H](Cc2ccccc2)N(C)C(=O)[C@H](C)NC(=O)[C@@H](CC(C)C)OC(=O)/C(C)=C/CCCCOC(=O)[C@H](CC)NC1=O (stereo partly drawn) [Compound 78] ([dHica]A[dNMeF][Sar][Ile(3ξ)][Abu]; linker N-C via X10) | 5.00 to 6.70 |  |  |
| CCC(C)[C@@H]1NC(=O)CN(C)C(=O)[C@@H](Cc2ccccc2)N(C)C(=O)[C@H](C)NC(=O)[C@@H](CC(C)C)OC(=O)/C(C)=C/CCCCOC(=O)CNC1=O (stereo partly drawn) [Compound 79] ([dHica]A[dNMeF][Sar][Ile(3ξ)]G; linker N-C via X10) | < 5.00 |  |  |
| CCC(C)[C@@H]1NC(=O)CN(C)C(=O)[C@@H](Cc2ccccc2)N(C)C(=O)[C@H](C)NC(=O)[C@@H](C(C)C)OC(=O)/C(C)=C/CCCCOC(=O)[C@@H](CC)NC1=O (stereo partly drawn) [Compound 80] ([dHiv]A[dNMeF][Sar][Ile(3ξ)][dAbu]; linker N-C via X10) | < 5.00 |  |  |
| CCC(C)[C@@H]1NC(=O)CN(C)C(=O)[C@@H](Cc2ccccc2)N(C)C(=O)[C@H](C)NC(=O)[C@@H](C(C)C)OC(=O)/C(C)=C/CCCCOC(=O)C(C)(C)NC1=O (stereo partly drawn) [Compound 81] ([dHiv]A[dNMeF][Sar][Ile(3ξ)][Aib]; linker N-C via X10) | 5.00 to 6.70 |  |  |
| C/C=C(\C)[C@H]1OC(=O)[C@@H](CCCCNC(=O)OC(C)(C)C)NC(=O)[C@H]([C@H](C)CC)NC(=O)CN(C)C(=O)[C@@H](Cc2ccccc2)N(C)C(=O)[C@H](C)NC(=O)[C@@H](CC(C)C)OC(=O)/C(C)=C/C[C@H](CCSC)[C@@H]1C [Compound 82] | > 7.70 | 6.70 to 7.70 |  |
| C/C=C(\C)[C@H]1OC(=O)[C@@H](CCCCN)NC(=O)[C@H]([C@H](C)CC)NC(=O)CN(C)C(=O)[C@@H](Cc2ccccc2)N(C)C(=O)[C@H](C)NC(=O)[C@@H](CC(C)C)NC(=O)/C(C)=C/C[C@H](OCSC)[C@@H]1C [Compound 83] ([dL]A[dNMeF][Sar][aIle][dK]; linker N-C via X6) | < 5.00 | < 5.00 |  |
| C/C=C(\C)[C@H]1OC(=O)[C@@H](CCCCN)NC(=O)[C@H](C(C)CC)NC(=O)CN(C)C(=O)[C@@H](Cc2ccccc2)N(C)C(=O)[C@H](C)NC(=O)[C@@H](CC(C)C)OC(=O)/C(C)=C/C[C@H](O)[C@@H]1C (stereo partly drawn) [Compound 84] | 5.00 to 6.70 | 5.00 to 6.70 |  |
| C/C=C(\C)[C@H]1OC(=O)[C@@H](C)NC(=O)[C@H]([C@H](C)CC)NC(=O)CN(C)C(=O)[C@@H](Cc2ccc(Cl)cc2)N(C)C(=O)[C@H](CCCCNC(=O)c2ccc(C(C)=O)cc2)NC(=O)[C@@H](CC(C)C)OC(=O)/C(C)=C/CC[C@@H]1C [Compound 121] | 5.00 to 6.70 |  |  |
| C/C=C(\C)[C@H]1OC(=O)[C@@H](C)NC(=O)[C@H]([C@H](C)CC)NC(=O)CN(C)C(=O)[C@@H](Cc2ccccc2)N(C)C(=O)[C@H](C)NC(=O)[C@@H](CC(C)C)OC(=O)/C(C)=C/C[C@H](OC(=O)NCCCOCCOCCOCCCNC(=O)c2ccc(/C(C)=N\NC(=O)CCCCCN3C(=O)C=CC3=O)cc2)[C@@H]1C [Compound L13] |  |  | 6.70 to 7.70 |
